Assay results reported in patent US7118895B2, “Process for producing aglycon by using diglycosidase and flavor-improved food containing the aglycon and converting agent to be used in the process” (Amano Enzyme Inc., priority 2000, dated 2006).

Legend:
[1] = system: Diglycosidase derived from P. multicolor; assay: Reactivity toward various isoflavone glycosides (HPLC); type: biochemical, Penicillium multicolor; design: glucoside / aglycon: unit not given here; settings: 55 °C, pH 4.0
Experimental: Diglycosidase was diluted with an acetate buffer of pH 4.0 to prepare a 0.75 AU/mL enzyme solution. As references, a similar operation was conducted using β-glucosidase (manufactured by Fluka) derived from Aspergillus niger, β-glucosidase (manufactured by Sigma) derived from almond, β-xylosidase derived from pectinase G (manufactured by Amano Enzyme Inc.). Each of purified products of isoflavone glycosides (glycitin, acetylglycitin, malonylglycitin, daidzin, acetyldaidzin, malonyldaidzin, genistin, acetylgenistin, malonylgenistin, all manufactured by Nacalai Tesque, Inc.) was dissolved in methanol to prepare each 2 mM substrate solution. The reaction was carried out by mixing 10 μL of a substrate solution, 200 μL of 20 mM acetate buffer (pH 4.0), and 40 μL of each purified enzyme solution at a total liquid volume of 250 μL. The reaction was carried out at 55° C. and isolation of an aglycon isoflavone from an isoflavone glycoside in the reaction mixture was detected by HLPC at 0, 1, 3, and 6 hours of the reaction.
To the reaction mixture was added 700 μL of ethanol, followed by stirring and ultrasonication. After centrifugation at 15,000 rpm and 4° C. for 10 minutes, the supernatant was filtered through a filter and then the filtrate was applied to HPLC.
The isoflavone glycoside and aglycon isoflavone contained in the filtrate was separated and detected by a high performance liquid chromatography (HPLC, Shimadzu CLASS LC-10 system) using TOSOH TSK gel ODS-80TM column (manufactured by Tosoh Corporation). […] The absorbance at 260 nm was detected by a UV detector (Shimadzu, SPD-10AV). Using purified products (manufactured by Nacalai Tesque, Inc.) of the above isoflavone glycosides and aglycon isoflavones, the isoflavone glycoside and aglycon isoflavone were quantitatively determined according to a calibration curve method. By the way, unless otherwise stated, the measuring conditions of HPLC herein mean those described in the example.

Crude diglycosidase = assay: Examination of substrate concentration in the conversion into isoflavone aglycons by diglycosidase using soybean materials; type: biochemical, Penicillium multicolor IAM7153; settings: for Decomposition efficiency: ratio of each glycoside/aglycon within its isoflavone family: roasted soy flour;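 on Decomposition efficiency: ratio of each glycoside/aglycon within its isoflavone family: percent of the isoflavone family total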
Method in brief: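 Soybean materials (roasted soy flour, soymilk, defatted soybean, concentrated soy protein) at 2–30% (w/v) in 20 mM acetate pH 4.0 were reacted with crude diglycosidase at 55° C with shaking; enzyme solution added was 1.88 AU/mL. Samples taken at 0, 1, 3 and 6 h were ethanol-extracted and analyzed by HPLC.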

[2] = substrate concentration 2%, heat treatment of enzyme no, reaction time 0 h
[3] = substrate concentration 2%, heat treatment of enzyme no, reaction time 1 h
[4] = substrate concentration 2%, heat treatment of enzyme no, reaction time 3 h
[5] = substrate concentration 2%, heat treatment of enzyme no, reaction time 6 h
[6] = substrate concentration 2%, heat treatment of enzyme yes, reaction time 6 h
[7] = substrate concentration 5%, heat treatment of enzyme no, reaction time 0 h
[8] = substrate concentration 5%, heat treatment of enzyme no, reaction time 1 h
[9] = substrate concentration 5%, heat treatment of enzyme no, reaction time 3 h
[10] = substrate concentration 5%, heat treatment of enzyme no, reaction time 6 h
[11] = substrate concentration 5%, heat treatment of enzyme yes, reaction time 6 h
[12] = substrate concentration 10%, heat treatment of enzyme no, reaction time 0 h
[13] = substrate concentration 10%, heat treatment of enzyme no, reaction time 1 h
[14] = substrate concentration 10%, heat treatment of enzyme no, reaction time 3 h
[15] = substrate concentration 10%, heat treatment of enzyme no, reaction time 6 h
[16] = substrate concentration 10%, heat treatment of enzyme yes, reaction time 6 h

SMILES: CC(=O)OC[C@H]1O[C@@H](Oc2ccc3c(=O)c(-c4ccc(O)cc4)coc3c2)[C@H](O)[C@@H](O)[C@@H]1O [acetyldaidzin, 6″-O-acetyldaidzin]
- aglycon ([1]; Reaction time 0 h): 0
- glucoside ([1]; Reaction time 0 h): 100
- aglycon ([1]; Reaction time 1 h): 89.6
- glucoside ([1]; Reaction time 1 h): 10.4
- aglycon ([1]; Reaction time 3 h): 96.2
- glucoside ([1]; Reaction time 3 h): 3.8
- aglycon ([1]; Reaction time 6 h): 96.2
- glucoside ([1]; Reaction time 6 h): 3.8
- Decomposition efficiency: ratio of each glycoside/aglycon within its isoflavone family (Crude diglycosidase; [2]): 47.6%
- Decomposition efficiency: ratio of each glycoside/aglycon within its isoflavone family (Crude diglycosidase; [3]): 9.2%
- Decomposition efficiency: ratio of each glycoside/aglycon within its isoflavone family (Crude diglycosidase; [4]): not detected
- Decomposition efficiency: ratio of each glycoside/aglycon within its isoflavone family (Crude diglycosidase; [5]): not detected
- Decomposition efficiency: ratio of each glycoside/aglycon within its isoflavone family (Crude diglycosidase; [6]): 47.2%
- Decomposition efficiency: ratio of each glycoside/aglycon within its isoflavone family (Crude diglycosidase; [7]): 46.1%
- Decomposition efficiency: ratio of each glycoside/aglycon within its isoflavone family (Crude diglycosidase; [8]): 20.9%
- Decomposition efficiency: ratio of each glycoside/aglycon within its isoflavone family (Crude diglycosidase; [9]): 12.5%
- Decomposition efficiency: ratio of each glycoside/aglycon within its isoflavone family (Crude diglycosidase; [10]): 6.8%
- Decomposition efficiency: ratio of each glycoside/aglycon within its isoflavone family (Crude diglycosidase; [11]): 46.1%
- Decomposition efficiency: ratio of each glycoside/aglycon within its isoflavone family (Crude diglycosidase; [12]): 38.5%
- Decomposition efficiency: ratio of each glycoside/aglycon within its isoflavone family (Crude diglycosidase; [13]): 30.5%
- Decomposition efficiency: ratio of each glycoside/aglycon within its isoflavone family (Crude diglycosidase; [14]): 21.5%
- Decomposition efficiency: ratio of each glycoside/aglycon within its isoflavone family (Crude diglycosidase; [15]): 14.9%
- Decomposition efficiency: ratio of each glycoside/aglycon within its isoflavone family (Crude diglycosidase; [16]): 47.7%
- Decomposition efficiency: ratio of each glycoside/aglycon within its isoflavone family (Crude diglycosidase; substrate concentration 20%, heat treatment of enzyme no, reaction time 0 h): 46.1%
- Decomposition efficiency: ratio of each glycoside/aglycon within its isoflavone family (Crude diglycosidase; substrate concentration 20%, heat treatment of enzyme no, reaction time 1 h): 40.7%
- Decomposition efficiency: ratio of each glycoside/aglycon within its isoflavone family (Crude diglycosidase; substrate concentration 20%, heat treatment of enzyme no, reaction time 3 h): 32.6%
- Decomposition efficiency: ratio of each glycoside/aglycon within its isoflavone family (Crude diglycosidase; substrate concentration 20%, heat treatment of enzyme no, reaction time 6 h): 25.1%
- Decomposition efficiency: ratio of each glycoside/aglycon within its isoflavone family (Crude diglycosidase; substrate concentration 20%, heat treatment of enzyme yes, reaction time 6 h): 47.2%
- Decomposition efficiency: ratio of each glycoside/aglycon within its isoflavone family (Crude diglycosidase; substrate concentration 30%, heat treatment of enzyme no, reaction time 0 h): 47.6%
- Decomposition efficiency: ratio of each glycoside/aglycon within its isoflavone family (Crude diglycosidase; substrate concentration 30%, heat treatment of enzyme no, reaction time 1 h): 46.4%
- Decomposition efficiency: ratio of each glycoside/aglycon within its isoflavone family (Crude diglycosidase; substrate concentration 30%, heat treatment of enzyme no, reaction time 3 h): 42.6%
- Decomposition efficiency: ratio of each glycoside/aglycon within its isoflavone family (Crude diglycosidase; substrate concentration 30%, heat treatment of enzyme no, reaction time 6 h): 34.3%
- Decomposition efficiency: ratio of each glycoside/aglycon within its isoflavone family (Crude diglycosidase; substrate concentration 30%, heat treatment of enzyme yes, reaction time 6 h): 47.4%
- Decomposition efficiency of daidzin family in defatted soybean (Crude diglycosidase; [2]): not detected
- Decomposition efficiency of daidzin family in defatted soybean (Crude diglycosidase; [3]): not detected
- Decomposition efficiency of daidzin family in defatted soybean (Crude diglycosidase; [4]): not detected
- Decomposition efficiency of daidzin family in defatted soybean (Crude diglycosidase; [5]): not detected
- Decomposition efficiency of daidzin family in defatted soybean (Crude diglycosidase; [6]): not detected
- Decomposition efficiency of daidzin family in defatted soybean (Crude diglycosidase; [7]): not detected
- Decomposition efficiency of daidzin family in defatted soybean (Crude diglycosidase; [8]): not detected
- Decomposition efficiency of daidzin family in defatted soybean (Crude diglycosidase; [9]): not detected
- Decomposition efficiency of daidzin family in defatted soybean (Crude diglycosidase; [10]): not detected
- Decomposition efficiency of daidzin family in defatted soybean (Crude diglycosidase; [11]): not detected
- Decomposition efficiency of daidzin family in defatted soybean (Crude diglycosidase; [12]): not detected
- Decomposition efficiency of daidzin family in defatted soybean (Crude diglycosidase; [13]): not detected
- Decomposition efficiency of daidzin family in defatted soybean (Crude diglycosidase; [14]): not detected
- Decomposition efficiency of daidzin family in defatted soybean (Crude diglycosidase; [15]): not detected
- Decomposition efficiency of daidzin family in defatted soybean (Crude diglycosidase; [16]): not detected
